Usually MIC stands for the smallest concentration in the dilution series that meets the test's criterion for growth inhibition.

Results on three compounds are retold here after patent US10323007B1, “N2N N4-disubstituted quinazoline-2,4-diamines and uses thereof” (University of South Florida, priority 2016, dated 2019).

Assay type in all cases: cell-based, Acinetobacter baumannii
In one assay the test system is A. baumannii 1650. Briefly: MIC assay, strain 1650. The note with it: Acinetobacter baumannii; strain 1650; Tables 1, 3, 4, 5 and footnotes; read-out: 1650 MIC. The procedure: (§1) MIC and MBC assays were performed in this study as documented by us previously.^17,23,24,25 The A. baumannii strains used are detailed in Table 7.
The subject of the next assay is A. baumannii 1403. Briefly: MIC assay, strain 1403. The settings on record: Acinetobacter baumannii; strain 1403; Tables 1, 3, 4, 5 and footnotes; read-out: 1403 MIC. The procedure: as §1
For another assay, the system named is A. baumannii 1646. Briefly: MIC assay, strain 1646. The settings on record: Acinetobacter baumannii; strain 1646; Tables 1, 3, 4, 5 and footnotes; read-out: 1646 MIC. How it is done: as §1
Another assay has as its system A. baumannii 1652. Briefly: MIC assay, strain 1652. The note with it: Acinetobacter baumannii; strain 1652; Tables 1, 3, 4, 5 and footnotes; read-out: 1652 MIC. How it is done:
as §1

Another assay relates to A. baumannii 1649. As to the kind of experiment: MIC assay, strain 1649. The note with it: Acinetobacter baumannii; strain 1649; Tables 1, 3, 4, 5 and footnotes; read-out: 1649 MIC. How it is done:
as §1

For another assay, the system named is A. baumannii 1651. Briefly: MIC assay, strain 1651. The settings on record: Acinetobacter baumannii; strain 1651; Tables 1, 3, 4, 5 and footnotes; read-out: 1651 MIC. How it is done:
as §1

The next assay relates to A. baumannii. As to the kind of experiment: MIC assay, A. baumannii isolates (strain not given). The settings on record: for MIC: Acinetobacter baumannii, strain not given, read-out: MIC. The procedure: as §1

Each structure is given as a SMILES string. ≈ marks a conversion by molar mass, not a printed value.

Turning to `CNc1nc(NCCc2ccccc2)nc2ccccc12` [Compound 16, N^4-Methyl-N^2-phenethylquinazoline-2,4-diamine], the minimum inhibitory concentration (MIC) in the assay with A. baumannii 1650 was more than 50 µM; with A. baumannii 1403 it was more than 50 µM; with A. baumannii 1646, 12 µM (≈ 3.34 µg/mL); with A. baumannii 1652, more than 50 µM; in the assay with A. baumannii 1649, more than 50 µM; in the assay with A. baumannii 1651, more than 50 µM. Further, the “fold more active than the benzyl analogue 8” value in the assay with A. baumannii (MIC comparison) amounted to 4 fold.

As for `CNc1nc(NCCc2ccccc2)nc2ccc(Cl)cc12` [Compound 17, 6-Chloro-N^4-methyl-N^2-phenethylquinazoline-2,4-diamine], the minimal inhibitory concentration (MIC) is more than 50 µM in the assay with A. baumannii 1650; more than 50 µM in the assay with A. baumannii 1403; 2 µM (≈ 0.626 µg/mL) in the assay on A. baumannii 1646; more than 50 µM in the assay on A. baumannii 1652; more than 50 µM in the assay with A. baumannii 1649; more than 50 µM in the assay on A. baumannii 1651. Also, the minimum inhibitory concentration (MIC) in the assay with A. baumannii lay within 2 to 4 µM (≈ 0.626 to 1.25 µg/mL).

As to `CNc1nc(NCCc2ccccc2)nc2ccc(OC)cc12` [Compound 18, 6-Methoxy-N^4-methyl-N^2-phenethylquinazoline-2,4-diamine], the MIC in the assay with A. baumannii 1650 is more than 50 µM; with A. baumannii 1403, more than 50 µM; with A. baumannii 1646, 4 µM (≈ 1.23 µg/mL); with A. baumannii 1652, more than 50 µM; in the assay on A. baumannii 1649 it was more than 50 µM; in the assay on A. baumannii 1651 it was more than 50 µM. Besides, in the assay with A. baumannii, the MIC fell in the range of 2 to 4 µM (≈ 0.617 to 1.23 µg/mL).
